Measurements published in patent US20100120708A1, “Combination therapy comprising ZD6474 and gemcitabine for anti-cancer therapy” (priority 2002, published 2010).
Several values for one entry are separate records, joined by “and”; a condition that tells them apart may be missing. Equal values may be shown once. Where a name gives a salt, the structure may show the parent alone.

Test system: L 3.6 μl human pancreatic cancer cells
Assay: Effects of ZD6474 and gemcitabine therapy on primary pancreatic tumour growth and metastases growing orthotopically in nude mice
Format: in vivo
Conditions: sacrificed day 32, ZD6474 50 mg/kg oral daily, gemcitabine 100 mg/kg i.p. twice weekly; for Incidence Pancreas (incidence of pancreatic tumours): orthotopic injection into pancreas, treatment from 8 days post-tumour injection; for Incidence Pancreas (incidence of pancreatic tumours) / LN Met (incidence of lymph node metastases) / Liver Met (incidence of liver metastases) / Peritoneal Carcinosis (incidence): animals affected/animals in group; for LN Met (incidence of lymph node metastases) / Liver Met (incidence of liver metastases) / Peritoneal Carcinosis (incidence): orthotopic; for Tumour Weight Average +/− std dev: primary pancreatic tumour weight, control 1231 mg; for Body Weight Average +/− std dev: control 21.4 g
Method: Model to Investigate Effects of ZD6474 and Gemcitabine Therapy on Primary Pancreatic Tumour Growth and Metastases Growing Orthotopically in Nude Mice
Nude mice (n=10 per group) were injected with 1×10^6 […] human pancreatic cancer cells into the pancreas. The mice received one of the following treatment regimes 8 days post-tumour injection:
Group 1—control group received saline by daily oral application; Group 2—a single daily dose of ZD6474 (50 mg/kg oral gavage); Group 3—gemcitabine twice weekly (on days 2 and 5 of each treatment week) (100 mg/kg by intraperitoneal injection (i.p.)); Group 4—a single daily dose of ZD6474 (50 mg/kg oral gavage) and twice weekly gemcitabine (on days 2 and 5 of each treatment week) (GEM: 100 mg/kg i.p.).
The animals were sacrificed 32 days after tumour cell injection.
The incidence of pancreatic tumours, liver metastases, lymph node metastases and peritoneal carcinosis was evaluated. The primary pancreatic tumour weight was measured. All macroscopically enlarged lymph nodes and liver nodules were confirmed by histopathology (H&E staining).

SMILES	Incidence Pancreas (incidence of pancreatic tumours)	LN Met (incidence of lymph node metastases)	Liver Met (incidence of liver metastases)	Peritoneal Carcinosis (incidence)	Tumour Weight Average +/− std dev	Tumour Weight Average +/− std dev (listed as gemcitabine)	Body Weight Average +/− std dev
Nc1ccn([C@@H]2O[C@H](CO)[C@@H](O)C2(F)F)c(=O)n1 [Gemcitabine, 2′-deoxy-2′,2′-difluorocytidine monohydrochloride (β-isomer)]	9/9	9/9	4/9	3/9	836 ± 291 mg	836 mg	21.7 ± 2.1 g
COc1cc2c(Nc3ccc(Br)cc3F)ncnc2cc1OCC1CCN(C)CC1 [ZD6474, 4-(4-bromo-2-fluoroanilino)-6-methoxy-7-(1-methylpiperidin-4-ylmethoxy)quinazoline]	10/10	3/10	1/10	1/10	541 mg and 541 ± 201 mg		19.2 ± 2.9 g
